US8048903B2, “5-iodotetrazoles” (LANXESS Deutschland GmbH, priority 2004, dated 2011)
Converted amounts (≈) assume the structure as drawn.

Assays:
[1] = system: mold fungi (Alternaria tenuis, Aspergillus flavus, Aspergillus niger, Aspergillus ustus, Cindosporum herbarum, Paecilomyces variotii, Penicillium citrium …); test: Test of dispersion coatings for resistance to mold; type: cell-based; conditions: coatings according to recipe A containing 1.0% (based on solids) of compound; even after rinsing out and wind tunnel exposure; 2-3 weeks, 29±1° C., 80-90% rel. humidity
Experimental: To test dispersion coatings for resistance to mold, the following procedure was adopted:
The paint to be tested was applied to both sides of a suitable base. To obtain results which are close to practice, some of the test specimens were rinsed out with running water (24 h, 20° C.) before the test for mold resistance; others were treated with a current of warm fresh air (7 days, 40° C.).
The samples prepared in this way were then placed on an agar nutrient medium, and both samples and nutrient medium were contaminated with fungal spores. After 2-3 weeks storage (29±1° C., 80-90% rel. atmospheric humidity), the samples were compared.
The coating is considered to be permanently mold-resistant if the sample remains free from fungus or at most a slight border infestation can be detected.
For the contamination, fungal spores of the following mold fungi were used, which are known as paint destroyers or are frequently encountered on coatings: […]

[2] = system: Aspergillus niger; test: Minimum inhibitory concentration (MIC) against fungi on malt extract agar; type: cell-based; conditions: 336 h, 2 weeks at 28° C., 60 to 70% relative atmospheric humidity, read-out: Minimum inhibitory concentrations Aspergillus niger
Experimental: (§1) In each case, the active compounds according to the invention, in concentrations of from 0.1 mg/l to 5000 mg/l, were added to an agar which had been prepared using malt extracts. The MIC was determined after 2 weeks of storage at 28° C. and 60 to 70% relative atmospheric humidity. The MIC is the lowest concentration of active compound at which there is no colonization by the microbial species used.

[3] = system: Chaetomium globosum; test: as above; type: cell-based; conditions: 336 h, 2 weeks at 28° C., 60 to 70% relative atmospheric humidity, read-out: Minimum inhibitory concentrations Chaetomium globosum
Experimental: as §1

[4] = system: Penicillium brevicaule; test: as above; type: cell-based; conditions: 336 h, 2 weeks at 28° C., 60 to 70% relative atmospheric humidity, read-out: Minimum inhibitory concentrations Penicillium brevicaule
Experimental: as §1

Row | Compound | melting point [°C] | Mold resistance of coating [1] | MIC [2] [µg/mL] | MIC [3] [µg/mL] | MIC [4] [µg/mL]
1 | Ic1nnnn1-c1ccccc1 [Example 2, 5-Iodo-1-phenyltetrazole] | 123 to 129 | mold resistant | < 40 | < 40 | < 40
2 | CCCCn1nnnc1I [Example 1, 5-Iodo-1-butyltetrazole] | 31 to 37 |  | 5 (≈ 19.8 µM) | 5 (≈ 19.8 µM) | < 1
